{"source": "patent US20260334464A1", "about": "“INCREASED PALATABILITY OF INSECTICIDAL INSECT BAITS” (BIO LOGIC CROP SCIENCE S.L., priority 2023, published 2026)", "assay_type_in_all_cases": "in vivo", "key": {"ants": {"test_system": "ants", "test": "Example 1 baits with serine, increase in palatability vs control (results not shown)", "conditions": "serine instead of cycloserine, or combinations", "protocol": "(§1) Ants: The tests are conducted in transparent plastic boxes covered on top with a mixture of ethanol and talcum powder (talcol) which prevents ants from fleeing. A drop of bait is placed on a holder, and the holder is placed with 10-30 ants and the behaviour of the ants is observed.\n(§2) The number of ants eating bait is counted every minute until 10′ and every 5 minutes until 30′. The boxes with ants are kept with the sample, with a source of humidity and alternative food to observe mortality at 24 hours and 48 hours.\nOn the other hand (results not shown), when serine is used instead of cycloserine in the bait, an increase in palatability is also observed, although somewhat lower, around 1.5-1.7 times compared to the control, and when serine, cycloserine and phloxine B, or serine and phloxine B are combined, this increase is 1.7-1-8 times compared to the control, with no appreciable differences between these last two combinations."}, "Periplaneta america": {"test_system": "Periplaneta america", "test": "Test 2A: palatability in terms of grams ingested (Example 2)", "conditions": "cockroach test of Example 2", "description": "(§3) Cockroaches: The cockroach test protocol, which can be performed at any location with usual temperature and humidity conditions and with field- or insectary-raised cockroaches, consists of collecting cockroaches that are deprived of food for 7 days; on the day of the test, 4 females and 4 males (or the desired number, for individual measurements, only one individual) are placed in boxes in which the bait is placed in a known quantity and the number of visits to the bait is counted every certain time, optionally the quantity ingested every hour or certain minutes is determined by differential weighing. In examples where mortality is considered, the number of individuals turned over per hour (or other defined time) is observed. The bait is removed and replaced with a standard bait-such as pelleted dog food and a water source, such as moistened cotton wool- and daily mortality is monitored for one week.\nA similar test was performed with Periplaneta america, Blattella germanica and Blatta orientialis cockroaches, as detailed below for the first species. In this case, it was possible to evaluate the amount of bait ingested per individual, with the formulas of this example corresponding to those of Example 1, but replacing the 20% fructose in all of them by 20% commercial hazelnut cream, so that we have the formulations C.2.1, P.2.1, P.2.2, P.2.3 with that change only."}, "insects [1]": {"test_system": "insects", "test": "Increase in palatability of baits, general statement", "conditions": "for effect on palatability of baits (in words): general statement; for comparison of activity of D and L isomers: D-cycloserine, L-cycloserine or mixtures in any ratio"}, "Lasius niger [2]": {"test_system": "Lasius niger", "test": "Palatability of imidacloprid ant bait (Example 3)", "conditions": "0.01 wt. % imidacloprid in bait", "protocol": "as §1, §2\nTo test the combination effect of cycloserine and/or phloxine with known insecticides used in baits, we used an ant bait-type composition and its equivalents of Example 1, but containing 0.01 wt. % of the insecticide imidacloprid. Serine was also tested in parallel instead of cycloserine.\nThe bait is offered to them, in boxes containing 10 Lasius niger ants each, for 3 hours, during which time palatability is observed."}, "insects [3]": {"test_system": "insects", "test": "Insecticidal efficacy / mortality of baits, general statement", "conditions": "for time to elimination of the insects (delayed mortality): cycloserine exclusively as active ingredient in bait; for difference in kill or duration between D-, L-cycloserine and mixtures: more detailed trials", "protocol": "On the other hand, in addition to the effect of increased palatability, the effect on mortality of compositions containing D-cycloserine, L-cycloserine and DL-cycloserine was investigated.\nAt this point, we encounter the unexpected situation, not observed in previous trials because it is not usual to determine death within a short time after exposure to the bait (e.g. from a few minutes to a maximum of 24 hours), that baits containing cycloserine exclusively as active ingredient (that is, in a conceptual simplification, water, sugar and cycloserine, or even water with cycloserine), both D-cycloserine and L-cycloserine or their mixtures in any ratio, present delayed mortality, reaching the elimination of the insects they have eaten in up to 7 days."}, "cockroach": {"test_system": "cockroach", "test": "Transfer of lethal effect by cannibalism", "conditions": "cockroach offered a cycloserine-treated cockroach", "description": "This circumstance, in addition to the use of cycloserine to increase the palatability of the baits, means that cycloserine can be used as an insecticide and also with an infrequent, or even unknown, particularity in pest control, i.e. the treated insects die in extraordinarily (relatively) long times of up to 7 days. This, which in principle may seem a disadvantage, is not so in certain cases, since it allows the ants to have more time to live functionally well, without external signs of intoxication that could warn other ants, and to transmit the bait by tropholaxy to the queen ant (or queen ants of the same anthill, when this is the case) and thus more effectively destroy the anthill. Similarly, the alertness (if any) of conspecifics to a dead cockroach near the bait is suppressed. […] Similarly, for long-term pest control, immediacy is not an insurmountable requirement, so it is also applicable in mosquito control to prevent disease transmission or pest control in agriculture."}, "Lasius niger [4]": {"test_system": "Lasius niger", "test": "Insecticidal efficacy of bait", "conditions": "according to our experience", "protocol": "as §1, §2"}, "Linepithema humile": {"test_system": "Linepithema humile", "test": "Insecticidal efficacy of bait", "conditions": "according to our experience", "protocol": "as §1, §2"}, "Blatta orientalis": {"test_system": "Blatta orientalis", "test": "Insecticidal efficacy of bait", "conditions": "according to our experience", "description": "as §3"}, "Blattella germanica": {"test_system": "Blattella germanica", "test": "Insecticidal efficacy of bait", "conditions": "according to our experience", "description": "as §3"}, "Periplaneta americana": {"test_system": "Periplaneta americana", "test": "Insecticidal efficacy of bait", "conditions": "according to our experience", "description": "as §3"}, "Aedes aegypti": {"test_system": "Aedes aegypti", "test": "Insecticidal efficacy of bait", "conditions": "according to our experience", "protocol": "(§4) Mosquitoes: Bait is added at 10% in water used by mosquitoes for drinking, placed in ordinary breeding nets, 10×10×10 cm^3, ad libitum.\n(§5) In the case of mosquito tests, the bait is given ad libitum to 50 specimens in 10 cm×10 cm×10 cm^3 cloth cages, using cotton wool impregnated with the baits mentioned above, but with a sugar mix content of only 10%, the rest being compensated by adding more water to the formula, so that it is liquid enough to be absorbed by the mosquitoes."}, "Aedes albopictus": {"test_system": "Aedes albopictus", "test": "Insecticidal efficacy of bait", "conditions": "according to our experience", "protocol": "as §4, §5"}, "Culex pipiens": {"test_system": "Culex pipiens", "test": "Insecticidal efficacy of bait", "conditions": "according to our experience", "protocol": "as §4, §5"}, "Anopheles gambiae": {"test_system": "Anopheles gambiae", "test": "Insecticidal efficacy of bait", "conditions": "according to our experience", "protocol": "as §4"}, "Culex quinquefasciatus": {"test_system": "Culex quinquefasciatus", "test": "Insecticidal efficacy of bait", "conditions": "according to our experience", "protocol": "as §4"}, "Ceratitis capitata": {"test_system": "Ceratitis capitata", "test": "Insecticidal efficacy of bait", "conditions": "according to our experience", "protocol": "(§6) Flies: Bait is added at 10% in water used by the flies for drinking, placed in 10×10×10 cm^3 ordinary breeding nets, ad libitum.\n(§7) Similarly, tests have been carried out with […] with house flies (Musca domestica) and with Mediterranean flies (Ceratitis capitata)."}, "Musca domestica": {"test_system": "Musca domestica", "test": "Insecticidal efficacy of bait", "conditions": "according to our experience", "protocol": "as §6, §7"}, "Simuliidae ssp.": {"test_system": "Simuliidae ssp.", "test": "Insecticidal efficacy of bait", "conditions": "according to our experience"}, "Bactrocera oleae": {"test_system": "Bactrocera oleae", "test": "Insecticidal efficacy of bait", "conditions": "according to our experience"}, "Bactrocera cucurbitae": {"test_system": "Bactrocera cucurbitae", "test": "Insecticidal efficacy of bait", "conditions": "according to our experience"}}}
{"smiles": "N[C@@H](CO)C(=O)O", "note": "[serine]", "values": [{"measurement": "increase in palatability compared to the control", "setting": "ants", "result": "1.5-1.7 times"}, {"measurement": "effect on palatability (in words)", "setting": "Periplaneta america", "result": "increases palatability, but to a lesser extent than cycloserine"}, {"measurement": "effect on palatability of baits (in words)", "setting": "insects [1]", "result": "shown to increase the palatability of baits"}]}
{"smiles": "O=[N+]([O-])NC1=NCCN1Cc1ccc(Cl)nc1", "note": "[imidacloprid]", "values": [{"measurement": "bait rejection", "setting": "Lasius niger [2]", "result": "does not cause bait rejection"}]}
{"smiles": "N[C@@H]1CON=C1O", "note": "[cycloserine]", "values": [{"measurement": "effect on palatability (in words)", "setting": "Periplaneta america", "result": "more pronounced"}, {"measurement": "comparison of activity of D and L isomers", "setting": "insects [1]", "result": "activity we have observed to be the same"}, {"measurement": "effect on palatability of baits (in words)", "setting": "insects [1]", "result": "shown to increase the palatability of baits"}, {"measurement": "time to elimination of the insects (delayed mortality)", "setting": "insects [3]", "result": "up to 7 days"}, {"measurement": "transfer of lethal effect to another cockroach", "setting": "cockroach", "result": "lethal effect of cycloserine on one cockroach is transferred to another cockroach"}, {"measurement": "efficacy as an insecticide", "setting": "Lasius niger [4]", "result": "great efficacy"}, {"measurement": "efficacy as an insecticide", "setting": "Linepithema humile", "result": "great efficacy"}, {"measurement": "efficacy as an insecticide", "setting": "Blatta orientalis", "result": "great efficacy"}, {"measurement": "efficacy as an insecticide", "setting": "Blattella germanica", "result": "great efficacy"}, {"measurement": "efficacy as an insecticide", "setting": "Periplaneta americana", "result": "great efficacy"}, {"measurement": "efficacy as an insecticide", "setting": "Aedes aegypti", "result": "great efficacy"}, {"measurement": "efficacy as an insecticide", "setting": "Aedes albopictus", "result": "great efficacy"}, {"measurement": "efficacy as an insecticide", "setting": "Culex pipiens", "result": "great efficacy"}, {"measurement": "efficacy as an insecticide", "setting": "Anopheles gambiae", "result": "great efficacy"}, {"measurement": "efficacy as an insecticide", "setting": "Culex quinquefasciatus", "result": "great efficacy"}, {"measurement": "efficacy as an insecticide", "setting": "Ceratitis capitata", "result": "great efficacy"}, {"measurement": "efficacy as an insecticide", "setting": "Musca domestica", "result": "great efficacy"}, {"measurement": "efficacy as an insecticide", "setting": "Simuliidae ssp.", "result": "great efficacy"}, {"measurement": "efficacy as an insecticide", "setting": "Bactrocera oleae", "result": "great efficacy"}, {"measurement": "efficacy as an insecticide", "setting": "Bactrocera cucurbitae", "result": "great efficacy"}]}
{"smiles": "N[C@@H]1CONC1=O", "note": "[D-cycloserine]", "values": [{"measurement": "comparison of activity of D and L isomers", "setting": "insects [1]", "result": "we have not seen an activity of one isomer greater than the other"}, {"measurement": "time to elimination of the insects (delayed mortality)", "setting": "insects [3]", "result": "up to 7 days"}, {"measurement": "difference in kill or duration between D-, L-cycloserine and mixtures", "setting": "insects [3]", "result": "no significant difference in kill or duration"}]}
{"smiles": "O=C([O-])c1c(Cl)c(Cl)c(Cl)c(Cl)c1-c1c2cc(Br)c(=O)c(Br)c-2oc2c(Br)c([O-])c(Br)cc12.[Na+].[Na+]", "note": "[phloxine B]", "values": [{"measurement": "effect on palatability of baits (in words)", "setting": "insects [1]", "result": "shown to increase the palatability of baits"}]}
{"smiles": "N[C@H]1CONC1=O", "note": "[L-cycloserine]", "values": [{"measurement": "comparison of activity of D and L isomers", "setting": "insects [1]", "result": "we have not seen an activity of one isomer greater than the other"}, {"measurement": "time to elimination of the insects (delayed mortality)", "setting": "insects [3]", "result": "up to 7 days"}, {"measurement": "difference in kill or duration between D-, L-cycloserine and mixtures", "setting": "insects [3]", "result": "no significant difference in kill or duration"}]}
